Values quoted from earlier work in patent US20140147496A1, “COMPOSITION AND METHOD FOR FERTILITY THERAPY USING NUTRITIONAL SUPPLEMENTS” (FAIRHAVEN HEALTH, LLC, priority 2009, published 2014).
One block for each compound: values may come before it.

Legend:
[1] = system: Infertile men with idiopathic asthenozoospermia; settings: oral
[2] = system: idiopathic asthenozoospermic infertile patients; settings: after administration
infertile patients [3] = settings: 60 mg, mean 103 days, 17 infertile patients
infertile patients [4] = settings: 2 g/day, two month cross-over, excluding outliers
[5] = system: patients with idiopathic asthenospermia; settings: 3 g/d
[6] = system: patients with idiopathic asthenospermia; settings: between baseline, 12 week, or 24 weeks
[7] = system: Patients with inflammatory abacterial prostatovesiculoepididymitis (PVE); settings: following a 3-month washout period

Coenzyme Q10 levels in seminal plasma and in sperm cells ([1]; after 6 months of therapy): increased significantly | Coenzyme Q10 in seminal plasma and in sperm cells [2]: significant increase
Structure (SMILES): COC1=C(OC)C(=O)C(C/C=C(\C)CC/C=C(\C)CC/C=C(\C)CC/C=C(\C)CC/C=C(\C)CC/C=C(\C)CC/C=C(\C)CC/C=C(\C)CC/C=C(\C)CCC=C(C)C)=C(C)C1=O [Coenzyme Q10]
sperm cell motility ([1]; after 6 months, computer-assisted analysis): significant increase | motility after incubation (sperm samples; samples with initial normal motility, 5 μM or 50 μM, 24 h): no significant change | motility (sperm samples; sperm samples from 22 asthenospermic men, in vitro, 50 μM): significant increases in motility | sperm motility [2]: improvement in sperm motility | standard sperm parameters (infertile patients [3]): no significant changes | fertilization rate (infertile patients [3]; p<0.05): significant improvement

Structure (SMILES): C[N+](C)(C)C[C@H](O)CC(=O)[O-] [L-carnitine]
semen quality over placebo (concentration, total and forward motility) (infertile patients [4]): statistically significant improvement

Structure (SMILES): CC(=O)O[C@H](CC(=O)[O-])C[N+](C)(C)C [LAC, L-acetyl-carnitine]
sperm cell motility [5]: increased

Structure (SMILES): C[N+](C)(C)CC(O)CC(=O)[O-] (stereo not shown) [carnitine]
motility or total motile sperm counts [6]: no significant differences | production of reactive oxygen species [7]: highest reduction | sperm motility and viability [7]: increased
